Experimental findings from ChEMBL document CHEMBL4732141, “Imidazopyridine-Based 5-HT Receptor Neutral Antagonists: Impact of N-Benzyl and N-Phenylsulfonyl Fragments on Different Receptor Conformational States” (J Med Chem, 2021) are described below.

A word on the inhibition: it is how much of the control response was suppressed. As a reminder, the Ki is the equilibrium dissociation constant of an inhibitor or competing ligand from its target. Read a low Ki as a stronger hold on the target. Usually EC50 stands for the concentration that produces a half-maximal response. In general, CC50 refers to the concentration that lowers cell viability or growth by half. A word on the IC50: it is the point on the concentration scale where inhibition reaches its midpoint.

Active and inactive are the calls of the source. The calls are words filed in the database; no cut-off is given here.

Series [1] can be described thus: Stability in deuterated dimethyl sulfoxide. Type of series: physicochemical.
Series [2] concerns the target beta-1 adrenergic receptor (Homo sapiens, UniProt P08588). In words: Inhibition of human beta1 adrenergic receptor at 1 uM relative to control.
In another series the target is hERG (KCNH2) (Homo sapiens, UniProt Q12809). The experiment in a line: Inhibition of human ERG at 1 uM relative to control.
Series [3] deals with T1, 5-hydroxytryptamine receptor 1A (Homo sapiens, UniProt P08908).
T1 sequence (P08908 whole entry): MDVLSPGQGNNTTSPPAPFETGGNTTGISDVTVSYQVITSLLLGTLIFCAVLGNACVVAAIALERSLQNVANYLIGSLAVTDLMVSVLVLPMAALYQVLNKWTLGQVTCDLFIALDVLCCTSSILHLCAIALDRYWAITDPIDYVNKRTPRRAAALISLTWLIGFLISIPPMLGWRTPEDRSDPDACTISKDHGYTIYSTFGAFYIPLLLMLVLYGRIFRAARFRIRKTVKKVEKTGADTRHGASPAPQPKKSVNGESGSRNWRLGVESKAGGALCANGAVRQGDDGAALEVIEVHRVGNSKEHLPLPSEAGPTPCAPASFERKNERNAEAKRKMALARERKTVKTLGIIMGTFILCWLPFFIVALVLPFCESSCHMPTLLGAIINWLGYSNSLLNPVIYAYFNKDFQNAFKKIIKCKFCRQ
In words: Displacement of […] from human 5HT1A expressed in HEK293 cell membranes incubated for 1 hr by micro-beta plate reader based analysis. Also on record: species or system Cell membrane.

Series [4] addresses T2, muscarinic acetylcholine receptor M1 (Homo sapiens, UniProt P11229).
T2 sequence (P11229 whole entry): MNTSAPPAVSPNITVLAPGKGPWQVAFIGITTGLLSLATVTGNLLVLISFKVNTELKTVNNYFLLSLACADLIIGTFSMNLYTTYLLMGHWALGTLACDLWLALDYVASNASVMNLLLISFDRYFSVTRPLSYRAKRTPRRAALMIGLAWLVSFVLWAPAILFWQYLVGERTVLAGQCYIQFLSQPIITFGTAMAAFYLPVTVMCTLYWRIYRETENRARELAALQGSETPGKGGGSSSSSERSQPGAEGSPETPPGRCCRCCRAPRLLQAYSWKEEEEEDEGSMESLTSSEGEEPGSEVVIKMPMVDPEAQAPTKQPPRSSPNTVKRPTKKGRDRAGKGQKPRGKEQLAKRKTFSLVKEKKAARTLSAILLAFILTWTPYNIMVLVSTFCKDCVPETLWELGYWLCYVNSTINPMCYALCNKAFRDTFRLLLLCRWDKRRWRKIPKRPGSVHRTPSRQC
In words: Inhibition of human muscarinic receptor 1 at 1 uM relative to control.

In series [5] the target is T1, 5-hydroxytryptamine receptor 1A. In words: Antagonist activity at human 5HT1A expressed in HEK293 cells assessed as reduction in forskolin-induced stimulation of cAMP production incubated for 30 mins by LANCE ultra cAMP detection assay. The settings on record: hek293, 0.5 h. The class given is cell-based.
Series [6] is described as follows: Stability in pH 1 buffer assessed as compound decomposition after 1 hr. Conditions: pH 1, 1 h. Type of series: physicochemical.
The target of series [7] is T1, 5-hydroxytryptamine receptor 1A. The experiment in a line: Agonist activity at human 5HT1A expressed in HEK293 cells assessed as stimulation of cAMP production incubated for 30 mins by LANCE ultra cAMP detection assay. The class given is cell-based. Background: Cyclic AMP is a second messenger, typically raised through Gs and lowered through Gi signalling.
Series [8] deals with histamine H1 receptor (HRH1) (Homo sapiens, UniProt P35367). In words: Inhibition of human HRH1 at 1 uM relative to control.
The target in series [9] is T3, alpha-1A adrenergic receptor (Homo sapiens, UniProt P35348).
T3 sequence (P35348 whole entry): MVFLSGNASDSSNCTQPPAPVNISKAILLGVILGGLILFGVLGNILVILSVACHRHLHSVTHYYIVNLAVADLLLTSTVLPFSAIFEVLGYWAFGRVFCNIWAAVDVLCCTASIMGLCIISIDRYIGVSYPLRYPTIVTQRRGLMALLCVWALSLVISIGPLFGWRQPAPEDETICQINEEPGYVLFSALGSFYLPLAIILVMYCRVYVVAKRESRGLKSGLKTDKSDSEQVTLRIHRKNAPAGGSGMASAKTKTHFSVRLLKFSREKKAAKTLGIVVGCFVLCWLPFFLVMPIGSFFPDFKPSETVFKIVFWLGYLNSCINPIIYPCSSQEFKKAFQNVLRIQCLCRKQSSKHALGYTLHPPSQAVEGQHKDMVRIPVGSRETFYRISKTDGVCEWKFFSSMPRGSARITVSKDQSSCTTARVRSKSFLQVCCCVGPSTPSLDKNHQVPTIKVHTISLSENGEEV
The experiment in a line: Inhibition of human alpha1A adrenergic receptor at 1 uM relative to control.

Series [10] deals with 5-hydroxytryptamine receptor 2A (Homo sapiens, UniProt P28223). The experiment in a line: Displacement of […] from human 5HT2A expressed in HEK293 cell membranes incubated for 1 hr by micro-beta plate reader based analysis. Also on record: species or system Cell membrane.
Series [11] has as its target 5-hydroxytryptamine receptor 6 (Homo sapiens, UniProt P50406). The experiment in a line: Binding affinity to 5HT6R (unknown origin).
Series [12] has as its system Astrocyte. The experiment in a line: Glio-protective activity in mouse C8-D1A astrocytes assessed as reduction in 6-OHDA-induced toxicity at […] pre-incubated for 12 hrs before doxorubicin addition and measured after 24 hrs by MTT assay. Type of series: functional, cell-based. The settings on record: dose 0.25 µM, time 36.0 hrs.
Series [13] relates to Astrocyte. In words: Glio-protective activity in mouse C8-D1A astrocytes assessed as reduction in 6-OHDA-induced toxicity at […] pre-incubated for 12 hrs before doxorubicin addition and measured after 24 hrs by LDH assay. The class given is functional, cell-based. The settings on record: dose 0.25 µM, time 36.0 hrs.
Series [14] relates to Astrocyte. The experiment in a line: Glio-protective activity in mouse C8-D1A astrocytes assessed as reduction in DOX-induced toxicity at […] pre-incubated for 5 hrs before doxorubicin addition and measured after 3 hrs by MTT assay. The class given is functional, cell-based. The settings on record: dose 0.25 µM, time 8.0 hrs. (In general: Formazan colour is commonly taken as a measure of viable cells.)

Series [15] relates to Astrocyte. In words: Glio-protective activity in mouse C8-D1A astrocytes assessed as reduction in DOX-induced toxicity at […] pre-incubated for 5 hrs before doxorubicin addition and measured after 3 hrs by LDH release assay. Type of series: functional, cell-based. Conditions: dose 0.25 µM. Background: Release of lactate dehydrogenase indicates damage to the cell membrane.

A short description of series [16]: Toxicity in mouse C8-D1A astrocytes assessed as reduction in cell viability by MTT assay. The class given is cell-based, Astrocyte.
Series [17] in a line: Toxicity in mouse C8-D1A astrocytes assessed as reduction in cell viability at […] by MTT assay. The class given is cell-based. Conditions: astrocyte, dose 0.25 µM.
A short description of series [18]: Stability in pH 1 buffer assessed as compound decomposition after 24 hrs. Type of series: physicochemical. The settings on record: pH 1, 24 h.
A short description of series [19]: Neurotoxicity in human SH-SY5Y cells assessed as reduction in cell viability incubated for 24 hrs by MTT assay. The class given is toxicity, cell-based.
Series [20] in a line: Effect on neurite growth in […] NG108-15 cells expressing GFP-tagged 5-HT6 receptor assessed as neurite length at 1 uM incubated for 24 hrs by epifluorescence microscopy (reference value: 37.20 +/- 1.53 micrometer). Type of series: functional.

Sequence of 5-hydroxytryptamine receptor 2A (P28223 whole entry): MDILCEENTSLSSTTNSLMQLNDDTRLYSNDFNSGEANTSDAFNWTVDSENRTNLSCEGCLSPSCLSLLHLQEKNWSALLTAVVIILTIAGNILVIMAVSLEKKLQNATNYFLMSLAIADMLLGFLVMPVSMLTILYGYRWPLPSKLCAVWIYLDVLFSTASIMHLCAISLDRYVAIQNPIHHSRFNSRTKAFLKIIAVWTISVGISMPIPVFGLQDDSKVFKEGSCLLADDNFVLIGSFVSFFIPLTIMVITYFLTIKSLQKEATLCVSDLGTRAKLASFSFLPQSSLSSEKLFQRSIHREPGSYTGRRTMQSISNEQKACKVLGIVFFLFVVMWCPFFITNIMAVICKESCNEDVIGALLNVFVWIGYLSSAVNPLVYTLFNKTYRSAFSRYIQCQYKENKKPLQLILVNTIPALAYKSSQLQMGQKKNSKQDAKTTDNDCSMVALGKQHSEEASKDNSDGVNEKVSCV
Sequence of hERG (KCNH2) (Q12809 whole entry): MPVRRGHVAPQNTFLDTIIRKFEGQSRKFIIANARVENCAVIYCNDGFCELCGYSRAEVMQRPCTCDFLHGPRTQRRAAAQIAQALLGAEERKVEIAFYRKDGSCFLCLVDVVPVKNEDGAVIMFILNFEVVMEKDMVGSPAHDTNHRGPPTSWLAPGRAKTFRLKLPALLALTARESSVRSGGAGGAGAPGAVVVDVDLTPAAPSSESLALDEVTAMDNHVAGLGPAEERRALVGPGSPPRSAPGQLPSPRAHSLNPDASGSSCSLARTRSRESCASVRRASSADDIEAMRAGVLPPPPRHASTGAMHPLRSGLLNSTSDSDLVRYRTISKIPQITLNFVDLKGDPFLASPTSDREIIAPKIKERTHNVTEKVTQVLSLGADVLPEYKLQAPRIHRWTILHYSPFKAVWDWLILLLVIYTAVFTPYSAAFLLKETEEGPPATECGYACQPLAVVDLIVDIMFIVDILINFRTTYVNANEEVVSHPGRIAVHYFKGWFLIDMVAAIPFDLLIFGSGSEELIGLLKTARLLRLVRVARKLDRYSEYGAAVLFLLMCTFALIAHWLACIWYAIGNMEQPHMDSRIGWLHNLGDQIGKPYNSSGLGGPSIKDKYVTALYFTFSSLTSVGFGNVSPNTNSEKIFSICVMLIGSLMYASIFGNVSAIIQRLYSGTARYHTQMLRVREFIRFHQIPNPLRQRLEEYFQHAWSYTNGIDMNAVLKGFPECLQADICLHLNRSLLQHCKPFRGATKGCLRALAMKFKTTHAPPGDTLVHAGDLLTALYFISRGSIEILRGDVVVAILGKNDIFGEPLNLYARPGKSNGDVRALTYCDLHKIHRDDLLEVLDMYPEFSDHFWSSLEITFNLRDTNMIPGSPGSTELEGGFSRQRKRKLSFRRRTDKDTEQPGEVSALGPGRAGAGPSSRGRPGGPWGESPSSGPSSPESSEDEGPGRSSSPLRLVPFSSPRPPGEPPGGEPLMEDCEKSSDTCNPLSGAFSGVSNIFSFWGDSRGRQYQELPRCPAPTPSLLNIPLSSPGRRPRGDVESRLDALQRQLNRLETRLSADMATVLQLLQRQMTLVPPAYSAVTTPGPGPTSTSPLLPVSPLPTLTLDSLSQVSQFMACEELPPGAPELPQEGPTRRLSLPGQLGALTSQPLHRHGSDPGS
Sequence of histamine H1 receptor (HRH1) (P35367 whole entry): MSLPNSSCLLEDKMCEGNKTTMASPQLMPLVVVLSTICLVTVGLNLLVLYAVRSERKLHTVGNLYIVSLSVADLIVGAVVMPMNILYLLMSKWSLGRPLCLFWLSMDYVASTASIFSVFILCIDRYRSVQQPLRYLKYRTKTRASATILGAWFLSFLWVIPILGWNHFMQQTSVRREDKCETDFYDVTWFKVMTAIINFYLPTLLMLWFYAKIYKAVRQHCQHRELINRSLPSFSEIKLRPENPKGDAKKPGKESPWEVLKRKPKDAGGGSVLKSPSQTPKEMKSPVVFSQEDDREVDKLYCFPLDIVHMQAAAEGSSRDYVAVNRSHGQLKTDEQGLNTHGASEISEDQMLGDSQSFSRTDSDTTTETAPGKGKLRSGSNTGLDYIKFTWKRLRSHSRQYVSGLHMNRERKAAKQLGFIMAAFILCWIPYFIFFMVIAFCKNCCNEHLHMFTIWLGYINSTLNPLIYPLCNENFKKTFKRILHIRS
Sequence of beta-1 adrenergic receptor (P08588 whole entry): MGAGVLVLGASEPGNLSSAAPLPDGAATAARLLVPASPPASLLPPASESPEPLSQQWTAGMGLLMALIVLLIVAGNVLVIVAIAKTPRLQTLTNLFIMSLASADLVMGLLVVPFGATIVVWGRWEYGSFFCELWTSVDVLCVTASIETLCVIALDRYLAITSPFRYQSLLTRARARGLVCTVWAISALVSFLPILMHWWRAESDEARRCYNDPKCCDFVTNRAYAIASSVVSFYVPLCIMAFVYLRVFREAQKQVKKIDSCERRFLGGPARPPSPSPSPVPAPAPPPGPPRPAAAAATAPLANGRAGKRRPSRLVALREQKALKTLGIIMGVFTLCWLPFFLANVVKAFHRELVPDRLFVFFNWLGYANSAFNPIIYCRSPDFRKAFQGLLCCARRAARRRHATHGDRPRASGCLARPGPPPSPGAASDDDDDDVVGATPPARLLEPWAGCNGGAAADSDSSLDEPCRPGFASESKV
Sequence of 5-hydroxytryptamine receptor 6 (P50406 whole entry): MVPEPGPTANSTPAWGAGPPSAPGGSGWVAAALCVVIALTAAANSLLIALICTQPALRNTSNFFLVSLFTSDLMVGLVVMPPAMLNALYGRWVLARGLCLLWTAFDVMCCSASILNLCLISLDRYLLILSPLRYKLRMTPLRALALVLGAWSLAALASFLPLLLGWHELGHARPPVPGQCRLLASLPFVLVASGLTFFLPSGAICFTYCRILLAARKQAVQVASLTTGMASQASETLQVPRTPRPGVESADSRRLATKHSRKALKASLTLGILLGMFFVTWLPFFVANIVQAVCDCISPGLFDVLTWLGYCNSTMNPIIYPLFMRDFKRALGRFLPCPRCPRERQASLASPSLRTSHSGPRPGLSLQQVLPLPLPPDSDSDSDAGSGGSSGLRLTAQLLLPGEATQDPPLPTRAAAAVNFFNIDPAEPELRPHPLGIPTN

In the case of `CCc1nc2c(N3CCNCC3)nccc2n1S(=O)(=O)c1cccc(Cl)c1`, the Stabilty result is “Unstable” in series [1] and “Stable” in [6]. Further, the inhibition at 1 µM turned out to be 10% in series [2]; 12% at hERG (KCNH2); 4% in series [4]; 6% in series [8]; 22% in series [9]. In addition, the results for the Ki in series [3] and in [10] were 146 nM and 562 nM, respectively. Further, the Activity result in series [5] is listed as “Not Active”. In addition, in series [7], the EC50 is greater than 20000 nM.
For `O=S(=O)(c1ccccc1)n1c(-c2ccccc2)nc2c(N3CCNCC3)nccc21`, the Stabilty entry in series [1] is “Unstable”; in series [6], “Stable”.
With `O=S(=O)(c1cccc(Cl)c1)n1cnc2c(N3CCNCC3)nccc21`, the values for the Stabilty entry in series [1] and in series [6] were “Unstable” and “Stable”, respectively. Also, the Ki is 285 nM in series [3] and 355 nM in series [10].
Regarding `Cc1nc2c(N3CCNCC3)cccc2n1S(=O)(=O)c1ccccc1` [PF-05212377], the Ki in series [11] is 0.5 nM.
As for `CC(C)c1nc2c(N3CCNCC3)nccc2n1S(=O)(=O)c1ccccc1`, the Stabilty result in [1] is given as “Unstable”; in [6], “Stable”.
As to `CCc1nc2c(N3CCNCC3)nccc2n1S(=O)(=O)c1cccc(F)c1`, the values for the Stabilty entry in series [1] and in series [6] were “Unstable” and “Stable”, respectively. Also, the Ki in series [3] amounted to 829 nM; in [10], 264 nM.
For `O=S(=O)(c1cccc(Cl)c1)n1c(-c2ccccc2)nc2c(N3CCNCC3)nccc21`, in that order: “Unstable”, “Stable”, 1090 nM and 410 nM.
For the compound `O=S(=O)(c1cccc(F)c1)n1cnc2c(N3CCNCC3)nccc21`, the Stabilty result in series [1] is reported as “Unstable”; in series [6], “Stable”.
Turning to `O=S(=O)(c1cccc(F)c1)n1c(-c2ccccc2)nc2c(N3CCNCC3)nccc21`, the values for the Stabilty entry in [1] and in series [6] were “Unstable” and “Stable”, respectively.
`COc1ccc(NS(=O)(=O)c2ccc(I)cc2)cc1N1CCN(C)CC1`: the result in the series with Astrocyte [12], in the series on Astrocyte [13], in the series on Astrocyte [14] and in the series on Astrocyte [15] was inactive. For the same compound, the CC50 in series [16] is greater than 1000 nM. Also, the Activity entry in series [17] was “Non-Toxic”.
For the compound `CC(C)c1nc2c(N3CCNCC3)nccc2n1S(=O)(=O)c1cccc(Cl)c1`, the Stabilty result was “Unstable” in series [1] and “Stable” in series [6]. The Ki came out at 307 nM in series [3] and 239 nM in series [10].
Regarding `COc1cccc(S(=O)(=O)n2c(-c3ccccc3)nc3c(N4CCNCC4)nccc32)c1`, the Stabilty entry in series [1] was “Unstable”; in series [6], “Stable”.
For `COc1cccc(S(=O)(=O)n2cnc3c(N4CCNCC4)nccc32)c1`, in that order: “Unstable” and “Stable”.
For `CC(C)c1nc2c(N3CCNCC3)nccc2n1S(=O)(=O)c1cccc(F)c1`, in that order: “Unstable” and “Stable”.
For the compound `COc1cccc(S(=O)(=O)n2c(C(C)C)nc3c(N4CCNCC4)nccc32)c1`, the Stabilty result was “Unstable” in series [1], “Stable” in [18] and “Stable” in series [6].
Turning to `COc1cccc2c1C(=O)c1c(O)c3c(c(O)c1C2=O)C[C@@](O)(C(=O)CO)C[C@@H]3O[C@H]1C[C@H](N)[C@H](O)[C@H](C)O1` [DOXORUBICIN], in series [19], the IC50 at 24 h was determined as 2300 nM.
As to `O=S(=O)(c1ccccc1)n1cnc2c(N3CCNCC3)nccc21`, the Stabilty entry is on record as “Unstable” in series [1] and “Stable” in series [6].
Regarding `O=S(=O)(c1ccccc1)c1cnc2c(N3CCNCC3)cccc2c1` [INTEPIRDINE], the Activity in series [20] is recorded as 12.06 um; in [17], “Non-Toxic”. Moreover, the CC50 in series [16] was greater than 1000 nM. The Stabilty result in series [6] is “Stable”.
